From US20180209979A1, “METHOD FOR INDIVIDUALIZED CANCER THERAPY” (INSERM (INSTITUT NATIONAL DE LA SANTE ET DE LA RECHERCHE), priority 2015, published 2018)

Legend:
CAL33 cells [1] = assay: Clonogenicity assay (clonal growth) of shC, sh1 and sh2 CAL33 cells; assay type: cell-based, human; conditions: for inhibition at 0.1 µM: Homo sapiens, CAL-33, erlotinib 0.1 μmol/L, FIG. 7
Protocol: The mean and standard deviation were calculated for three independent experiments. Statistical analysis was carried out using a t test. […] Dishes were then stained with Giemsa (Fluka) and plates were scanned in order to analyze the results by computer with ImageJ software (NIH, USA).

CAL33 cells [2] = conditions: read-out: IC50 of erlotinib, Quesnelle K M et al. 2012; cited from earlier work
head and neck tumors = conditions: Agulnik M et al. 2007; cited from earlier work
CAL 33 cells = assay: qPCR analysis of pro-angiogenic/pro-inflammatory genes induced by TRF2 silencing; assay type: cell-based, human; conditions: shC cells = 100
Source text: (§1) To further analyze the effect of TRF2 knock-down on cell proliferation, invasion capabilities and treatment response, CAL 33 cells expressing shRNA against TRF2 and dominant negative forms of TRF2 were generated (Biroccio A et al. Nat Cell Biol 2013; 15(7):818-28). CAL 33 cells were infected using lentiviral vector (pLKOpuro-3×LacO, Sigma). The plasmids contained scramble (shC; SEQ ID No1) or TRF2-specific shRNA, sh1 (SEQ ID No2) or sh2 (SEQ ID No3).

CAL33LUC cells = assay: Tumor xenograft formation, size evaluation and tumor section analysis; assay type: in vivo; conditions: 10^6 CAL33LUC cells subcutaneously in nude mice, versus shC, FIG. 5
Protocol: 10^6 cells were injected subcutaneously into the flanks of 5-week-old nude (nu/nu) female mice (Janvier). Bioluminescence was quantified using the In Vivo Imaging System (Perkin Elmer) according to the manufacturer's instructions. Tumor volume [(v ¼ L l^2 0.52] was determined in parallel using a caliper. There was a linear relationship between values for bioluminescence and the tumor volume.
Immuno-histochemical staining for TRF2 was carried out in 3 μm tissue sections from formalin-fixed, paraffin-embedded tissue blocks. Histopathological analysis was conducted in 3 μm tissue sections colored with Masson's trichrome (blue collagen) and scanned with Leica Slide Path. For each tumor, pictures were taken and the following parameters were analyzed using Leica Slide Path Gateway software: total area of the section, area of necrosis, presence of white blood cells inflammatory infiltrate, presence of red blood cells extravasation, thickness of collagen around vessels, number of vessels.

CAL33 cells [3] = assay: Cumulative population doublings of CAL33 cells; assay type: cell-based, human; conditions: FIG. 2B
Protocol: (§2) For cumulative population doublings assays (Nekanti U et al. Int J Biol Sci 2010; 6(5):499-512.) 10^5 cells were grown in 7.5% FCS-DMEM medium for 28 days at 37° C. and 5% CO2 in Petri boxes 100 mm diameter. Cells were counted each day (Coulter, Beckman) and media were changed every five days. Cells at each passage was calculated as a ratio of total number of cells harvested to total number of cells seeded multiplied by the total number of cells from the previous passage. Population doublings were calculated using the formula: […]
(§3) in which NI is the inoculum cell number and NH the cell harvest number.
(§4) To yield the cumulated doubling level, the population doubling for each passage was calculated and then added to the population doubling levels of the previous passages. The population doubling time was obtained by the formula: […]
(§5) In which NI is the inoculum cell number; NH is the cell harvest number and t is the time of the culture (in hours).

CAL27 cells = assay: Cumulative population doublings of CAL27 cells; assay type: cell-based, human; conditions: FIG. 3B
Protocol: as §2, §3, §4, §5

TRF2 = TRF2 knock-down tested by immunoblotting in CAL33 cells; assay type: cell-based, human; conditions: FIG. 2A
Source text: as §1
The following antibodies were used for Western blotting: anti-phospho ERK 1,2 (Sigma St Louis, Mo.), anti-phospho Akt, anti-Akt, anti-EGFR (Cell Signaling, Cambridge, UK,), anti-ERKs (Santa Cruz Biotechnology, Santa Cruz, Calif.)), anti-TRF2 (Novus bio, Cambridge, UK) and alpha-tubulin (Fischer scientific, Illkirch France).

| Compound | percentage expression of 36B4 (CAL 33 cells) | percentage expression of CXCL1 (CAL 33 cells) | percentage expression of CXCL7 (CAL 33 cells) | percentage expression of CXCL8 (CAL 33 cells) | percentage expression of CXCL9 (CAL 33 cells) | percentage expression of GAPDH (CAL 33 cells) | percentage expression of IL6 (CAL 33 cells) | percentage expression of PDGF-BB (CAL 33 cells) | percentage expression of RANTES (CAL 33 cells) | percentage expression of TRF2 (CAL 33 cells) | percentage expression of m-RPLP0 (CAL 33 cells) | tumor growth / tumor size (bioluminescence) (CAL33LUC cells) | proliferation (cumulative population doublings) (CAL33 cells [3]) | proliferation (cumulative population doublings) (CAL27 cells) | further results |
| --- | --- | --- | --- | --- | --- | --- | --- | --- | --- | --- | --- | --- | --- | --- | --- |
| O=c1[nH]cc(F)c(=O)[nH]1 [5 FU] |  |  |  |  |  |  |  |  |  |  |  |  |  |  | influence of TRF2 knock-down on the efficacy of the drug (clonal growth) (CAL33 cells [1]; shC, sh1 and sh2 CAL33 cells, FIG. 6B): no influence |
| C#Cc1cccc(Nc2ncnc3cc(OCCOC)c(OCCOC)cc23)c1 [erlotinib] |  |  |  |  |  |  |  |  |  |  |  |  |  |  | inhibition at 0.1 µM (CAL33 cells [1]; sh1 CAL33 cells (TRF2 knock-down)): 40%; inhibition at 0.1 µM (CAL33 cells [1]; sh2 CAL33 cells (TRF2 knock-down)): 50%; IC50 (CAL33 cells [2]): 5.4 µM; patients with an objective response to the treatment (head and neck tumors): 50% |
| sh1: TRF2-specific shRNA encoded by DNA of SEQ ID No2, expressed from lentiviral vector (DNA GCCAGAATATCATTAGCGTTTCTCGAGAAACGCTAATGATATTCTGGC) | 100% | 380(***) % | 110% | 350(***) % | 210(**) % | 100% | 400(***) % | 150(*) % | 270(***) % | 70% | 100% | decreases tumor growth | does not impair CAL33 proliferation | does not impair CAL27 proliferation |  |
| sh2: TRF2-specific shRNA encoded by DNA of SEQ ID No3, expressed from lentiviral vector (DNA GCGCATGACAATAAGCAGATTCTCGAGAATCTGCTTATTGTCATGCGC) | 100% | 370(***) % | 120(*) % | 1100(***) % | 600(***) % | 100% | 1000(***) % | 190(***) % | 190(***) % | 40% | 100% | decreases tumor growth | does not impair CAL33 proliferation | does not impair CAL27 proliferation | tumor growth / tumor size (bioluminescence) (CAL33LUC cells; listed as shTRF2 #2): smallest tumors; efficacy in knocking-down TRF2 (TRF2): most efficient |
